Measurements published in patent publication US10266544B2, “Aryl substituted aminomethyl spectinomycin analogs as antibacterial agents” (ST. JUDE CHILDREN'S RESEARCH HOSPITAL, INC., priority 2013, dated 2019).
Structures can show the parent of a compound that is named as a salt. Where two headings read alike, the source gives them in different places.

Columns and labels:
Assay type in all cases: cell-based
[1] = tested on: Bacillus anthracis, Sterne 34F2; test: microbe, parasite or virus in culture; conditions: STERNE34F2, read-out: MIC B.a.
[2] = tested on: Bacillus subtilis (ATCC 23857); test: MIC determination, microbroth dilution; conditions: ATCC23857; Bacillus subtilis (ATCC 23857); read-out: MIC B.s.
[3] = tested on: Enterococcus faecalis (ATCC 33186); test: MIC determination, microbroth dilution; conditions: ATCC33186; Enterococcus faecalis (ATCC 33186); read-out: MIC E.f.
[4] = tested on: Staphylococcus aureus (ATCC 29213); test: MIC determination, microbroth dilution; conditions: ATCC29213; Staphylococcus aureus (ATCC 29213); read-out: MIC S.a.
[5] = tested on: MRSA, Staphylococcus aureus (NRS70); test: MIC determination, microbroth dilution; conditions: Staphylococcus aureus (NRS70); read-out: MIC MRSA
[6] = tested on: Streptococcus pneumoniae (R6); test: MIC determination, microbroth dilution
[7] = tested on: Streptococcus pyogenes (ATCC 700294); test: MIC determination, microbroth dilution; conditions: ATCC700294; Streptococcus pyogenes (ATCC 700294); read-out: MIC S. py.
[8] = tested on: acinetobacter baumannii (ATCC 19606); test: MIC determination, microbroth dilution; conditions: ATCC19606
[9] = tested on: Burkholderia cepacia (ATCC 25416); test: MIC determination, microbroth dilution; conditions: Burkholderia cepacia
[10] = tested on: Escherichia coli (ATCC 700926); test: MIC determination, microbroth dilution; conditions: ATCC700926; Escherichia coli (ATCC 700926); read-out: MIC E.c.
E. coli K12 ΔtolC = test: microbe, parasite or virus in culture; conditions: Escherichia coli, read-out: MIC E.c. Δtolc
[11] = tested on: Klebsiella pneumoniae (ATCC 33495); test: MIC determination, microbroth dilution; conditions: ATCC33495
[12] = tested on: Pseudomonas aeruginosa (PA01); test: MIC determination, microbroth dilution
[13] = tested on: Proteus mirabilis (ATCC 25933); test: MIC determination, microbroth dilution; conditions: ATCC25933
[14] = tested on: Proteus vulgaris (ATCC 33420); test: MIC determination, microbroth dilution; conditions: ATCC33420
[15] = tested on: Stenotrophomonas maltophilia (ATCC 13637); test: MIC determination, microbroth dilution; conditions: ATCC13637; Stenotrophomonas maltophilia (ATCC 13637); read-out: MIC S.m.
[16] = tested on: Haemophilus influenza (ATCC 49247); test: microbe, parasite or virus in culture; conditions: ATCC49247; Haemophilus influenza; 4 μg per disc; range of at least two experiments; read-out: Zone of inhibition H.i.
[17] = tested on: Legionella pneumophila (ATCC 33153); test: microbe, parasite or virus in culture; conditions: ATCC33153, 72 h, read-out: Zone of inhibition L.p.
[18] = tested on: Neisseria meningitides (ATCC 13077); test: Disc diffusion assay; conditions: ATCC13077, 4 μg per disc, read-out: Zone of inhibition N.m.
[19] = tested on: Neisseria gonorrhoeae (ATCC 49226); test: Disc diffusion assay; conditions: ATCC49226, 4 μg per disc, read-out: Zone of inhibition N.g.
[20] = tested on: Neisseria gonorrhoeae (ATCC 49226); test: Agar MIC determination (Alamar Blue); conditions: ATCC49226, agar MIC, read-out: MIC N.g.
Bacillus anthracis = test: microbe, parasite or virus in culture; conditions: read-out: MIC B.a.
Yersinia pestis = test: microbe, parasite or virus in culture; conditions: read-out: MIC Y.p.
[21] = tested on: live vaccine strain (LVS) of Francisella tularensis; test: microbe, parasite or virus in culture; conditions: Francisella tularensis
[22] = tested on: Streptococcus pneumoniae clinical isolates representing several serotypes; test: MIC determination, Streptococcus pneumoniae panel of clinical isolates (Table 7); conditions: Streptococcus pneumoniae
[23] = tested on: M. tuberculosis clinical isolates; test: microbe, parasite or virus in culture; conditions: Mycobacterium tuberculosis, H37RV, read-out: MIC H37Rv
Listeria monocytogenes = test: MIC determination (Table 6)
Moraxella catarrhalis = test: MIC determination (Table 6)
[24] = Streptococcus pneumoniae (R6), read-out: MIC S. pn.
[25] = Streptococcus pneumoniae, S. pneumoniae R6, Drug Susceptible, read-out: MIC R6
[26] = ATCC25416, read-out: MIC B.c., Burkholderia cepacia (ATCC 25416)
[27] = ATCC25416, read-out: MIC B.c., Burkholderia cepacia, Table 6
[28] = BAA1407, S. pneumoniae BAA-1407, Macrolide Resistant, read-out: MIC BAA-1407
[29] = S. pneumoniae A66.1x, Drug Susceptible, read-out: MIC A66.1x
[30] = S. pneumoniae BHN97x, Drug Susceptible, read-out: MIC BHN97x
[31] = S. pneumoniae D39X, Drug Susceptible, read-out: MIC D39X
[32] = S. pneumoniae Daw7, PenG Resistant, read-out: MIC Daw7
[33] = S. pneumoniae Daw8, PenG Resistant, read-out: MIC Daw8
[34] = S. pneumoniae Daw9, PenG Resistant, read-out: MIC Daw9
[35] = S. pneumoniae Daw62, PenG Resistant, read-out: MIC Daw62
[36] = S. pneumoniae Daw64, PenG Resistant, read-out: MIC Daw64
[37] = S. pneumoniae OVA6, Macrolide Resistant, read-out: MIC OVA6
[38] = S. pneumoniae T4X, Drug Susceptible, read-out: MIC T4X

SMILES	MIC [1] [µg/mL]	MIC [2] [µg/mL]	MIC [3] [µg/mL]	MIC [4] [µg/mL]	MIC [5] [µg/mL]	MIC [6, 24] [µg/mL]	MIC [6, 25] [µg/mL]	MIC [7] [µg/mL]	MIC [8] [µg/mL]	MIC [9, 26] [µg/mL]	MIC [9, 27] [µg/mL]	MIC [10] [µg/mL]	MIC (E. coli K12 ΔtolC) [µg/mL]	MIC [11] [µg/mL]	MIC [12] [µg/mL]	MIC [13] [µg/mL]	MIC [14] [µg/mL]	MIC [15] [µg/mL]	zone of inhibition at 4 µg/disc [16] [mm]	zone of inhibition at 4 µg/disc [17] [mm]	further results
CN[C@@H]1[C@H](O)[C@H](NC)[C@H]2O[C@]3(O)[C@H](O[C@@H]2[C@H]1O)O[C@H](C)C[C@@]3(O)CNCc1ccccc1 [compound 1, 3′-(R)-3′-(benzylaminomethyl)dihydrospectinomycin Trihydrochloride]	50	3.1	25	50	50 to 100	6.3 to 12.5	6.3	3.1 to 6.3	> 200	≥ 200	≥ 200	100	25	> 200	> 200	> 200	200	25	16	36 to 40	zone of inhibition at 4 µg/disc [18]: 16 to 22 mm; zone of inhibition at 4 µg/disc [19]: 16 mm; MIC [20]: 100 µg/mL; MIC (Bacillus anthracis): 50 µg/mL; MIC (Yersinia pestis): 100 to 200 µg/mL; MIC ([21]; read-out: MIC F.t.): 3.1 µg/mL; MIC [22, 28]: 12.5 µg/mL; MIC [22, 29]: 3.1 µg/mL; MIC [22, 30]: 3.1 µg/mL; MIC [22, 31]: 3.1 µg/mL; MIC [22, 32]: 6.3 µg/mL; MIC [22, 33]: 6.3 µg/mL; MIC [22, 34]: 6.3 µg/mL; MIC [22, 35]: 6.3 µg/mL; MIC [22, 36]: 6.3 µg/mL; MIC [22, 37]: 6.3 µg/mL; MIC [22, 38]: 6.3 µg/mL; MIC [23]: 25 µg/mL; MIC (Listeria monocytogenes): 25 µg/mL; MIC (Moraxella catarrhalis): 6.3 µg/mL
CN[C@@H]1[C@H](O)[C@H](NC)[C@H]2O[C@]3(O)[C@H](O[C@@H]2[C@H]1O)O[C@H](C)C[C@@]3(O)CNCc1ccc(OC(F)(F)F)cc1 [compound 11, 3′-(R)-3′-[(4-trifluoromethoxyl)benzylaminomethyl)]dihydrospectinomycin Trihydrochloride]	100 to 200	100	25 to 50	100	100 to 200	3.1	3.1	1.6	> 200	> 200	> 200	25	12.5	> 200	100 to 200	> 200	> 200	50 to 100	16	21	zone of inhibition at 4 µg/disc [18]: 18 to 19 mm; zone of inhibition at 4 µg/disc [19]: 16 to 20 mm; MIC [20]: 12.5 µg/mL; MIC (Bacillus anthracis): 100 to 200 µg/mL; MIC (Yersinia pestis): 200 µg/mL; MIC [21]: 1.6 µg/mL; MIC ([21]; read-out: MIC F.t.): 1.6 to 3.1 µg/mL; MIC [22, 28]: 6.3 µg/mL; MIC [22, 32]: 3.1 µg/mL; MIC [22, 33]: 1.6 µg/mL; MIC [22, 34]: 1.6 µg/mL; MIC [22, 35]: 1.6 µg/mL; MIC [22, 36]: 3.1 µg/mL; MIC [22, 37]: 6.3 µg/mL; MIC [22, 38]: 0.8 µg/mL; MIC [23]: 50 µg/mL; MIC (Listeria monocytogenes): 12.5 to 25 µg/mL; MIC (Moraxella catarrhalis): 6.3 µg/mL
CCOc1ccc(CNC[C@]2(O)C[C@@H](C)O[C@H]3O[C@@H]4[C@@H](O)[C@H](NC)[C@H](O)[C@H](NC)[C@H]4O[C@]32O)cc1 [compound 4, 3′-(R)-3′-[(4-ethoxyl)benzylaminomethyl)]dihydrospectinomycin Trihydrochloride]	100	12.5 to 25	12.5 to 25	25 to 50	50	1.6 to 3.1	1.6	1.6 to 3.1	≥ 200	> 200	> 200	25 to 50	6.3	100 to 200	100 to 200	> 200	> 200	25 to 50	15 to 18	18 to 33	zone of inhibition at 4 µg/disc [18]: 16 to 18 mm; zone of inhibition at 4 µg/disc [19]: 15 to 17 mm; MIC [20]: 12.5 µg/mL; MIC (Bacillus anthracis): 100 µg/mL; MIC (Yersinia pestis): > 200 µg/mL; MIC ([21]; read-out: MIC F.t.): 0.8 to 3.1 µg/mL; MIC [22, 28]: 6.3 µg/mL; MIC [22, 29]: 0.8 µg/mL; MIC [22, 30]: 1.6 µg/mL; MIC [22, 31]: 0.8 µg/mL; MIC [22, 32]: 3.1 µg/mL; MIC [22, 33]: 1.6 µg/mL; MIC [22, 34]: 3.1 µg/mL; MIC [22, 35]: 3.1 µg/mL; MIC [22, 36]: 3.1 µg/mL; MIC [22, 37]: 3.1 µg/mL; MIC [22, 38]: 1.6 µg/mL; MIC [23]: 25 µg/mL; MIC (Listeria monocytogenes): 6.3 to 12.5 µg/mL; MIC (Moraxella catarrhalis): 3.1 to 6.3 µg/mL
